Assay results published in article PMC13042944, “Substituent‐Based Modulation of Self‐Assembly and Immunogenicity of Amphipathic Peptides” (Advanced Science, 2026).
Like-named read-outs stand apart in the source and are kept apart here. One block for each molecule: values may come before it.

Legend:
[1] = Negative-stain TEM of self-assembled peptide fibrils (width, length, morphology); assay type: physicochemical; details: for fibril width: assembled in water, 10 µM on grid, n = 200 measurements from 30 fibrils; for self-assembly / fibril morphology (in words): in water, identical preparation conditions
Procedure: Peptide solutions (10 µM; diluted in UPW from fibrillated peptide solutions as stated above) were applied directly to 200‐mesh, carbon‐coated copper grids for 2 min and stained with 1% uranyl formate for 1 min. Excess stain and the peptide solution were blotted using filter paper, and grids were washed thrice with UPW. Darkfield images were acquired on a JEOL (Akishima, Japan) JEM‐2100F Field‐Emission STEM microscope at an accelerating voltage of 120 kV.
Individual fibers were selected for measurement, avoiding aggregates. The width of each fiber was measured using the line tool by drawing a line across the fiber's width at an angle approximately perpendicular (90°) to its orientation to ensure accuracy. Similar measurements were done to calculate the length of the fibrils. The start and end points of the line were determined based on the contrast between the fiber and the surrounding background. […]

[2] = comparison values for longer KFE peptides; ref [14], [37]; cited from earlier work
Text: All the KFE5 peptide SAXS curves fit simple shape models of long polydisperse rods plus smaller globular components (Figure 5A). The characteristics of these rods, extracted from fitting to a Guinier‐plate model, are almost identical with an average rod or tape thickness estimated at 31.9(1) Å (Figure 5B). This is similar to our previously measured values for KFE8 and KFE12 [14, 37]. This thickness, which includes contributions from the solvent layer, matches the β‐sheet sandwich model. This appears to be a common feature of the KFE peptides that is not disrupted by the modification of the ...

[3] = Gelation, rheology (G′, G″) and viscosity of peptide solutions; assay type: physicochemical; details: for Gel Formation: 5 mM peptide concentration, in deionized water; for viscosity (in words): 5 mM peptide solutions, shear rate 100 s^-1, n = 4
Procedure: An ARES 2000ex rotational rheometer (TA Instruments, New Castle, DE) was used to evaluate the viscosity and viscoelastic properties of the peptides. Peptides were freshly solubilized in deionized water at 5 mM and allowed to incubate for 10 min to allow for complete solubilization. Next, 170 µL of each peptide solution was pipetted directly onto the rheometer stage. A 20 mm parallel plate geometry was lowered to a gap of 200 µm. Storage modulus (G′) and loss modulus (G″) were measured as a function of strain amplitude of 0.05–50% at an angular frequency of 10 rad/s to determine the linear viscoelastic region. Next, G′ and G″ were measured as a function of angular frequency (1–10 rad/s) at a strain of 1%. […] Separately, a Hagen‐Poiseuille viscometer (microVISC, Rheosense, San Ramon, CA) was used at a shear rate of 1000 s^−1 to validate measured viscosity trends.

[4] = Small-angle X-ray scattering (SAXS) of peptide assemblies; assay type: physicochemical; details: 4 mg/mL in deionized water (CN 2 mg/mL), 10°C, Debye‐Bueche fit 0.015–0.10 Å^−1
Procedure: SAXS data of the KFE5 X‐phenyl substituted peptide solutions were collected using a Rigaku (Woodlands, TX) BioSAXS‐1000 camera on an FRE^++ X‐ray generator with an ASC‐96 Automated Sample Changer held at 10°C. A matching buffer was collected for each sample. The detector was calibrated using a silver behenate powder sample, following the manufacturer's recommended procedure. The SAXS samples (KFE5 and its variants) were prepared by dissolving […] of lyophilized peptide in 400 µL of deionized water to produce a final concentration of 4 mg/mL. The samples were then vortexed, and precipitants were removed by centrifugation at […] for 5 min. Although the samples formed gels, these remained fluid under hydrostatic pressure, permitting pipetting by the ASC‐96 liquid handling system. The cyano variant of KFE5 was an exception. It remained a gel at 4 mg/mL and needed to be diluted to 2 mg/mL to be pipetted or flowed in the ASC‐96 liquid sample handling system. Processing was performed in SAXSLab (Rigaku) and SAXNS‐ES (https://xray.utmb.edu/SAXNS). Analyses were performed in Primus/GNOM [81], BIFT [82, 83], and gnuplot (http://www.gnuplot.info).

[5] = Thioflavin T (ThT) fluorescence assay of fibrils; assay type: physicochemical; details: 50 µM peptide, ThT 10 µM, ex 440 nm / em 485 nm, n = 4
Procedure: For ThT assays, 50 µM fibrillated peptide solutions (diluted in UPW from fibrillated peptide solutions as stated above) were mixed with 20 µM ThT solution, and fluorescence was monitored at 485 nm upon excitation at 440 nm in a 96‐well plate using a Synergy HT plate reader (Biotek, USA). The OVA‐conjugated peptide fibrils were used to assess long‐term stability over a 7‐day period.

[6] = tested on: mouse bone-marrow dendritic cells (DCs); experiment: Cytokine and chemokine release from BMDC cultures treated with nanofibers; assay type: cell-based; details: BMDCs treated with peptide nanofibers 10 μM for 24 h, supernatant analysed
Procedure: The femurs and tibiae of mice of C57BL/6 mice were flushed, and single‐cell suspensions were prepared, following removal of red blood cells (RBCs) using lysis buffer (Invitrogen, USA). After washing twice using HBSS (Hanks balanced salt solution), cells were differentiated for 7–9 days in complete Roswell Park Memorial Institute (RPMI) 1640 media containing heat‐inactivated Fetal bovine serum (FBS) (10%), β‐mercaptoethanol (55 µM), sodium pyruvate (1 mM), 10 mM 4‐hydroxyethylpiperazine ethane sulfonic acid (HEPES), 1× MEM (Minimum Essential Medium) non‐essential amino acids, 20 ng/mL granulocyte‐macrophage colony‐stimulating factor (GM‐CSF), 5 ng/mL IL‐4 and 100 µg/mL Penicillin‐Streptomycin (pen‐strep) in 150 mm dish (25 mL/dish) in an incubator at standard conditions (37°C and 5% CO2). Cells were harvested using gentle washing with MEM media between days 7–9 for experiments.
[picture] Figure S16. Cytokines and chemokines production in mouse bone-marrow dendritic cells (DCs) treated with peptide nanofibers (10 μM) for 24 h.

[7] = molecular target: the molecule itself; experiment: negative-stain TEM; peptide solutions 10 µM, diluted in ultrapure water from fibrillated 1 mM stocks, on carbon-coated copper grids, 1% uranyl formate

- fibril width [1]: 8–10 nm
- self-assembly / fibril morphology (in words) [1]: thin nanofibrils
Molecule: CC(=O)N[C@@H](Cc1ccccc1)C(=O)N[C@@H](CCCCN)C(=O)N[C@@H](Cc1ccccc1)C(=O)N[C@@H](CCC(=O)O)C(=O)N[C@@H](Cc1ccccc1)C(=O)N[C@@H](CCCCN)C(=O)N[C@@H](Cc1ccccc1)C(=O)N[C@@H](CCC(=O)O)C(N)=O [KFE8, reference compound]
- gel inhomogeneity‐correlation length (ζ) [2]: 25 Å

- fibril width [1]: 50–100 nm
- self-assembly / fibril morphology (in words) [1]: broader tape‐like structures
- Gel Formation [3]: No
- gel inhomogeneity‐correlation length (ζ) [4]: about 58 Å
Molecule: Ac-FKFEF-NH2 [KFE5, Ac‐FKFEF‐Am]
- viscosity (in words) [3]: highest viscosity among the non‐gelling derivatives

- self-assembly / fibril morphology (in words) [1]: complete ablation
- ThT fluorescence intensity (in words) [5]: lowest and comparable to ThT alone
- Gel Formation [3]: No
- viscosity (in words) [3]: lowest viscosities
- storage modulus G′, fold lower than parent peptide ([3]; 5 mM peptide, strain 1%, angular frequency 10 rad/s, n = 3): approximately 2.5 fold
Molecule: Ac-YKYEY-NH2 [KFE5(OH)]
- cytokine and chemokine release profile (in words) [6]: release of MIP‐1α and MIP‐1β without TNF‐α secretion

B1: KFE8 (Ac-FKFEFKFE-Am) (peptide)
peptide: Ac-FKFEFKFE-NH2
notes: designed amphipathic octapeptide; also called double repeat of FKFE
- binding result [7]: binds

B2: KFE5 (Ac-FKFEF-Am) (peptide)
peptide: Ac-FKFEF-NH2
notes: designed amphipathic pentapeptide, truncated variant of KFE8; also called KFE5(H); source: synthetic peptide (Fmoc-SPPS on Rink Amide resin, HPLC purified)
- binding result [7]: binds
